# Results: the OPERA property sets (Mansouri et al. 2018)
# Peptide text beside a SMILES is read from it. * marks the point of attachment. Cbz = O=C(OCc1ccccc1)*
row,Compound,logP
1,O=C1CN=C(c2ccc[nH]2)c2cc(Cl)ccc2N1,2.59
2,CC(=O)N(C)c1ccc(S(=O)(=O)N(C)C)cc1,0.23
3,c1ccc(CSc2nnc[nH]2)cc1,1.45
4,CC(C)C(=O)Nc1ccc(Cl)c(Cl)c1,3.72
5,COC(=O)c1cccc(NC(C)=O)c1,1.46
6,C=CCn1c(C)c(N(C)C)c(=O)n(-c2ccccc2)c1=O,1.44
7,CSc1ccccc1NC(C)=O,1.53
8,CC(=O)OCC1OC(NC(=O)N(CCCl)N=O)C(OC(C)=O)C(OC(C)=O)C1OC(C)=O (stereo unspecified),1.04
9,C=CCN(C)N=Nc1ccc(C(N)=O)cc1,2.09
10,CC(=O)Nc1ccc(S(C)(=O)=O)cc1,0.58
11,O=C1NC(c2cccc3ccccc23)Nc2ccccc21 (stereo unspecified),2.96
12,FC(F)(F)C(F)(F)C(F)(F)C(F)(F)C(F)(F)F,4.4
13,CCCCC(=O)N(C)c1ccc(S(=O)(=O)N(C)C)cc1,1.63
14,COCCN(N=Nc1[nH]cnc1C(N)=O)C(C)(C)C,1.14
15,CCOCCOC(=O)C(C#N)=C(CC)NCc1ccc([N+](=O)[O-])cc1,2.64
16,CSc1ccc(NC(C)=O)cc1,2.03
17,CCOC(=O)c1ccc(NC(=O)C(F)(F)F)cc1,2.25
18,O=S(=O)(NS(=O)(=O)c1ccccc1)c1ccccc1,0.52
19,CCN(CC)Cc1ccc(C(=O)Nc2ccccc2)cc1,3.49
20,COc1cc(C=O)ccc1OCCOC(=O)c1cccc(Cl)c1,3.67
21,CCCc1c(OCCCCc2nnn[nH]2)ccc(C(C)=O)c1O,3.82
22,O=NN(CCCl)C(=O)Nc1ccc(Cl)cc1,3.16
23,CNC(=S)Nc1ccccc1,0.85
24,CN(C)N=CCCc1ccccc1,2.05
25,Cc1cccc(C)c1NC(=O)c1cccc(CN2CCCC2)c1,3.1

row,Compound,logP
1,NCC(CC(=O)O)c1ccc(Cl)cc1 (stereo unspecified),-0.96
2,CCNCC(F)(F)F,0.74
3,O=C(O)c1ccccc1-c1ccccc1C(=O)O,2.07
4,N#CN=Nc1ccccc1,2.3
5,OCCOCCN1CCN(CCCN2c3ccccc3Sc3ccc(C(F)(F)F)cc32)CC1,4.49
6,CC(=O)Nc1ccccc1C(C)C,1.71
7,CCOc1ccccc1NC(C)=O,1.49
8,CCC1(C)CCC(=O)NC1=O (stereo unspecified),0.23
9,CC(C)S(=O)(=O)n1c(N)nc2ccc(/C(=N/O)c3ccccc3)cc21,3.1
10,COc1cc(S(C)=O)ccc1-c1cn2ccncc2n1 (stereo unspecified),1.11
11,CC(=O)NN=CCCc1ccccc1,1.8
12,CCCCOc1ccnc(C=CC2=CC([N+](=O)[O-])O2)n1 (stereo unspecified),2.04
13,CNC(=O)Oc1cccc(Cl)c1Cl,2.48
14,c1ccc(-c2nnco2)cc1,1.31
15,CC(C)C(NC(=O)OCc1ccccc1)C(=O)NC(Cc1ccc(O)cc1)C(=O)O (stereo not drawn) (Cbz-Val-Tyr-OH; configuration not given here),2.43
16,CC(=O)Nc1ccc(C(C)(C)C)cc1,3.05
17,CC(=O)OC1CCCC(NC(=O)N(CCF)N=O)C1 (stereo unspecified),1.33
18,CC(=O)Nc1ccc(C(C)=O)cc1,1.24
19,CCC(=O)OCCOc1ccc(C=O)cc1OC,1.33
20,CN(C)C(=S)Nc1ccccc1,1.04
21,CC(=O)OCCC(=O)N(C)c1ccc(S(=O)(=O)N(C)C)cc1,0.26
22,CCN(CC)Cc1ccc(C(=O)Nc2c(C)cccc2C)cc1,3.49
23,O=C(CCc1ccccc1)Nc1ccc(Cl)c(Cl)c1,4.85
24,NC(=O)Nc1cccc(NC(N)=O)c1,0.58
25,O=C(Cc1ccccc1)Nc1ccc(Cl)c(Cl)c1,4.47

row,Compound,logP
1,CCOC(=O)CON=Cc1ccc(OCCOC(=O)c2cc(OC)c(OC)c(OC)c2)c(OC)c1,3.26
2,COc1ncccn1,0.23
3,CC(=O)Nc1ccc2c(c1)S(=O)(=O)c1ccccc1C2=O,2.35
4,Cc1ccc(Cc2c[nH]c(NCCCCc3ccc(Br)cc3C)nc2=O)cn1,3.61
5,CCC1OC(=O)C(C)C(OC2CC(C)(OC)C(O)C(C)O2)C(C)C(OC2OC(C)C(O)C(N(C)C)C2O)C(C)(O)CC(C)C(=O)C(C)C(O)C1(C)O (stereo unspecified),1.44
6,CC1(O)OC(=O)c2ccccc21 (stereo unspecified),0.81
7,O=C(Nc1ccc(Cl)c(Cl)c1)C(F)F,3.18
8,S=C(Nc1ccccc1)c1ccccc1,3.03
9,CCCC1CC(C(=O)NC(C(C)O)C2OC(SC)C(O)C(O)C2O)N(CC)C1 (stereo unspecified),1.02
10,CNc1cccc2ccccc12,2.88
11,O=C(O)Cc1n[nH]oc1=O,-1.66
12,CN(C)/N=N/c1ccccc1C(=O)NCC#N,1.79
13,C[N+](C)(C)Cc1cccc(C(F)(F)F)c1.[Br-],-1.35
14,CCOC(=O)CCC(=O)N(C)c1cccc(S(=O)(=O)N(C)C)c1,0.84
15,O=C(Nc1ccccc1)c1ccc(C(=O)Nc2ccccc2)cc1,3.72
16,COc1ccccc1C=CC(=O)OCCOc1ccc(C=O)cc1OC,3.65
17,COc1ccc(-c2nc3ncccc3[nH]2)c(OC)c1,2.57
18,c1ccc(CSc2cnn[nH]2)cc1,2.65
19,CN(C(=O)CCO)c1ccc(S(=O)(=O)N(C)C)cc1,-0.26
20,CN(Cc1ccccc1)N=Nc1[nH]cnc1C(N)=O,1.54
21,CSc1ncnc2c1ccn2C1OC(CO)C(O)C1O (stereo unspecified),0.09
22,O=C(O)c1ccccc1-c1ccccc1,2.89
23,NC(=O)c1nc[nH]c1N=NN(CCO)Cc1ccccc1,0.99
24,CCCCCCCCNC(N)=NNC(=O)Nc1ccc(Cl)cc1,4.35
25,O=c1[nH]cc(I)c(=O)[nH]1,0.04

row,Compound,logP
1,N#CCCN(CCC#N)/N=N/c1nc[nH]c1C(N)=O,-0.76
2,O=C(CN(C(=O)CCl)c1ccccc1)Nc1ccccc1,2.32
3,O=C(O)c1cc(=O)c2c(OCC(O)COc3cccc4oc(C(=O)O)cc(=O)c34)cccc2o1,1.92
4,CC(=O)Nc1ccccc1NC(C)=O,-0.03
5,Cc1c2ccncc2cc2c1[nH]c1ccccc12,4.06
6,NC(=O)c1cccnc1N,0.88
7,O=C(Nc1ccc(Cl)c(Cl)c1)C(F)(F)F,3.9
8,NCC(=O)NCC(=O)NCC(=O)O,-2.68
9,CCOC(=O)C(=Cc1ccc(OC)c(OC)c1)C(=O)OCC,2.89
10,O=NN(CCCl)C(=O)NC1(C(=O)O)CCCC1,2.01
11,Cc1nnc(SCc2ccccc2)s1,2.35
12,CN=C=S,0.94
13,COc1ccc2c(=O)c(C)c(C(C)C)oc2c1,3.39
14,COCC(=O)Nc1ccc(Cl)c(Cl)c1,2.77
15,Nc1nc(N)c2ncn(COCCO)c2n1,-1.06
16,COc1cccc(CC(C)N)c1OC (stereo unspecified),1.49
17,O=S1(=O)NC(C2=CCCC2)=Nc2ccccc21,1.69
18,Cc1oc2ccccc2c(=O)c1C,2.31
19,CCCc1ccc2c(c1)C(=O)c1ccc(NC(C)=O)cc1S2(=O)=O,3.51
20,CC(C)(C)/[N+]([O-])=C/c1ccccc1,1.26
21,CC(C)(C)C(=O)Nc1ccc(Cl)c(Cl)c1,3.88
22,CCOC(=O)CC(=O)C=Cc1cccc(C)c1,2.8
23,N=c1ccn2c(n1)O[C@H]1[C@H](O)[C@@H](CO)O[C@H]12,-2.37
24,CCC(CC)C1=Nc2ccccc2S(=O)(=O)N1,1.88
25,CC=CC(=O)Nc1ccc(Cl)c(Cl)c1,3.63

row,Compound,logP
1,NC1=NC(C(F)(F)F)(C(F)(F)F)NC1(C(F)(F)F)C(F)(F)F,3.35
2,COc1cccc(Cc2cnc(N)nc2N)c1OC,1.62
3,COc1cc(C=NO)ccc1OCCOC(=O)c1ccc(Cl)cc1,3.92
4,O=c1cc(-c2ccc(O)cc2)oc2ccccc12,3.2
5,O=c1cc(-c2ccccc2)oc2cc(O)ccc12,3.62
6,CC1(C)OCCO1,0.46
7,COc1nnccc1N(C)C,0.9
8,COC1OC(CNC(=O)N(C)N=O)C(O)C(O)C1O (stereo unspecified),-1.57
9,Cn1cnc2ccccc2c1=O,0.69
10,CC(=O)Nc1ccccc1C#N,0.57
11,CCCCCCC1OC(=O)c2cc(N)ccc21 (stereo unspecified),3.65
12,COc1cc(C=NO)ccc1OCCOC(=O)c1cccc(Cl)c1,3.94
13,CC(=O)N(CC(=O)Nc1ccccc1)c1ccccc1,2.01
14,CN(C(=O)CCSC#N)c1ccc(S(=O)(=O)N(C)C)cc1,0.84
15,O=C(Nc1ccc(Cl)c(Cl)c1)C1CCCC1,4.47
16,c1cc2n(n1)CCN2,-0.25
17,CN(C)C(=S)NCc1ccccc1,1.59
18,COC1OC(CO)C(O)C(NC(=O)N(C)N=O)C1O (stereo unspecified),-0.82
19,CC(C)=NO,0.12
20,CN(C)N=Nc1cn(C2OC(CO)C(O)C2O)c(=O)[nH]c1=O (stereo unspecified),-1.82
21,CSC(=O)Nc1ccccc1,2.4
22,CC1=C(C(=O)O)N2C(=O)C(NC(=O)C(O)c3ccccc3)C2SC1 (stereo unspecified),0.46
23,COc1cc(C=NO)ccc1OCCO,0.82
24,CC1(C)OC2CC3C4CC(F)C5=CC(=O)C(Cl)=CC5(C)C4(F)C(O)CC3(C)C2(C(=O)CO)O1 (stereo unspecified),2.99
25,CC(=O)OC[C@@H](OC(C)=O)[C@@H](OC(C)=O)[C@H](OC(C)=O)[C@H](C=O)OC(C)=O,0.63

row,Compound,logP
1,COc1cc(C=O)ccc1OCCOC(=O)c1ccc(Cl)cc1,3.71
2,COc1cc(C=O)ccc1OCCO,0.58
3,NC(=O)NN=Cc1ccccc1,1.27
4,CCCOCCC(=O)N(C)c1ccc(S(=O)(=O)N(C)C)cc1,1.26
5,O=C(CCl)Nc1ccc(Cl)c(Cl)c1,3.29
6,CC(=O)OCC1CCC(NC(=O)N(CCCl)N=O)CC1 (stereo unspecified),2.24
7,CCOCCOC(=O)C(C#N)=C(CC)Nc1ccc([N+](=O)[O-])cc1,2.6
8,COc1cc(Cc2cnc(N)nc2N)cc(OC)c1N(C)C,1.51
9,CCCCCC(=O)N(C)c1ccc(S(=O)(=O)N(C)C)cc1,2.16
10,CC(=O)Nc1ccc(C(F)(F)F)cc1,2.52
11,O=C1C=CC(=NCl)C=C1,1.26
12,O=C(O)c1cc(=O)c2ccccc2o1,1.63
13,CC(=O)Nc1ccc(CN(C)N=Nc2ccc(C(=O)O)cc2)cc1,3.35
14,O=[N+]([O-])c1ccc(C(F)(F)F)cc1,2.55
15,Cc1cccc(C)c1NC(=O)c1cccc(CN2CCOCC2)c1,2.14
16,CCC1(c2ccccc2)NC(=O)NC1=O (stereo unspecified),1.53
17,CCOC(CCC#N)OCC,0.75
18,CCC(=O)OCCOc1ccc(C=NO)cc1OC,1.52
19,O=C(Nc1ccc(Cl)c(Cl)c1)c1ccccc1,4.42
20,CC(=O)Nc1ccc2c(=O)c(C)c(C)oc2c1[N+](=O)[O-],1.61
21,CS(=O)(=O)OCCCNCCCOS(C)(=O)=O,-1.71
